Laboratory results from US7704514B2 (priority 2003, dated 2010).
No end group written: not given here.

Legend:
[1] = tested on: peptide-specific IFN-γ producing cells; parameters: species or system C57B1/6 mice; details: mouse, in vivo, sc
[2] = tested on: HCV-peptide specific IFN-γ production by CD4+ and CD8+ T cells; format: in vivo, HLA-A*0201 transgenic mice (HHD.1); details: HHD.1 mice; co-injection of the five HCV-derived peptides (20 μg each) with KLK 10 nmol/o-d(IC)13 0.4 nmol s.c. days 0, 14, 28; day 35
Protocol: Experimental setup (5 mice/group): • 1. HCV peptides • 2. HCV peptides+KLK+o-d(IC)13
On days 0, 14 and 28 HHD.1 mice were injected s.c. into both hind footpads with a total volume of 100 μl/mouse (50 μl/footpad) containing the above listed compounds. At day 35 (7 days after last vaccination) CD4^+ as well as CD8^+ T cells were isolated by magnetic separation (MACS, Miltenyi) from single cell suspensions of spleen cells. T cells were incubated with medium (background control) or were restimulated with irradiated spleen cells from naïve HHD.1 mice as APC in the presence of either the different peptides used for vaccination or the irrelevant peptide p1274. After overnight incubation, the IFN-γ production was analyzed using an ELIspot assay.

human neutrophils = details: cited from earlier work
Staphylococcus aureus = details: literature (Nakajima 1997; Cho 1999); cited from earlier work
[3] = tested on: HBsAg-specific IFN-γ and IL-4 production; format: in vivo, C57BL/6 mice; details: C57BL/6, s.c. flank day 0 and 56; co-injected with HBsAg 5 μg/mouse; Alum, pR and KLK: after boost
Protocol: Experimental setup (5 mice/group/timepoint): • 1. HBsAg • 2. HBsAg+Alum • 3. HBsAg+I-ODN 2 • 4. HBsAg+I-ODN 2b • 5. HBsAg+o-d(IC)13 • 6. HBsAg+pR • 7. HBsAg+KLK • 8. HBsAg+pR+I-ODN 2 • 9. HBsAg+pR+I-ODN 2b • 10. HBsAg+pR+o-d(IC)13 • 11. HBsAg+KLK+I-ODN 2 • 12. HBsAg+KLK+I-ODN 2b • 13. HBsAg+KLK+o-d(IC)13
On day 0 and day 56 mice were injected subcutaneously into the right flank with a total volume of 100 μl/mouse containing the above mentioned compounds. The analysis of the immune response was performed at day 7, day 21 and day 50 after first and second injection, respectively. Spleen cells of five mice per group per time point were restimulated ex vivo with 10 μg/ml HBsAg and ELIspot assays were performed in order to analyse the HBsAg-specific IFN-γ (type 1 immune response) as well as IL-4 (type 2 immune response) production.

[4] = tested on: Influenza vaccine (Fluvirin)-specific IgG1 and IgG2b antibodies; parameters: species or system C57BL/6 mice; details: mouse, in vivo, sc

Substance: TMLYNKMEF [p1569]
- peptide-specific IFN-γ spots of spleen cells after restimulation with the respective peptide (ELIspot) [1]: specifically release IFN-γ

Substance: IASNENMETM [p1574, reference compound]
- peptide-specific IFN-γ spots of spleen cells after restimulation with the respective peptide (ELIspot) [1]: do not show any specific spots

Substance: SSIAAQDAL [p1600]
- peptide-specific IFN-γ spots of spleen cells after restimulation with the respective peptide (ELIspot) [1]: do not show any specific spots

Substance: HMWNFISGIQYLAGLSTLPGNPA [p1426]
- IFN-γ produced by CD4+ T cells against the peptide (ELIspot) [2]: high amounts

Substance: VTILNLALL [p1664]
- peptide-specific IFN-γ spots of spleen cells after restimulation with the respective peptide (ELIspot) [1]: specifically release IFN-γ

Substance: DLMGYIPAV [p87]
- IFN-γ produced by CD4+ T cells against the peptide (ELIspot) [2]: high amounts
- IFN-γ production by CD8+ T cells against the peptide (ELIspot) [2]: strong

Substance: KLKLLLLLKLK-NH2
- production of the superoxide anion (O2−) by human neutrophils via cell surface calreticulin (human neutrophils): activated to produce the superoxide anion
- chemotherapeutic activity in Staphylococcus aureus-infected mice (Staphylococcus aureus): significant chemotherapeutic activity

Substance: CINGVCWTV [p89]
- IFN-γ produced by CD4+ T cells against the peptide (ELIspot) [2]: high amounts
- IFN-γ production by CD8+ T cells against the peptide (ELIspot) [2]: strong

Substance: KLKLLLLLKLK-OH
- HBsAg-specific IL-4 production (type 2 immune response) compared to injection of HBsAg alone, spleen cell ELIspot [3]: Slightly increased
- Influenza vaccine-specific IgG1 (type 2 response), serum ELISA [4]: induces the production of Influenza vaccine-specific IgG1
- Influenza vaccine-specific IgG2b (humoral type 1 response), serum ELISA [4]: no specific IgG2b response is detectable

Substance: GYKVLVLNPSVAAT [p84]
- IFN-γ produced by CD4+ T cells against the peptide (ELIspot) [2]: high amounts

Substance: Poly-L-Arginine [pR, reference compound]
- HBsAg-specific IL-4 production (type 2 immune response) compared to injection of HBsAg alone, spleen cell ELIspot [3]: Slightly increased
- Influenza vaccine-specific IgG2b (humoral type 1 response), serum ELISA [4]: no specific IgG2b response is detectable
